Experimental data from patent US12428455B2, “Dominant negative CEBPB and CEBPD proteins and methods of use for decreasing viability of neoplastic cells” (The Trustees of Columbia University in the City of New York, priority 2018, dated 2025).
No end group written: not given here.

Assays:
HCT116 cells = assay: HCT116 subcutaneous tumors; format: in vivo, NCR nude mice; settings: 20 mg/kg intraperitoneally
Procedure: HCT116 cells were subcutaneously implanted in the flanks of NCR nude mice. After tumors formed, the animals were treated intraperitoneally with 20 mg/kg of CP-dn-CEBPD or vehicle as indicated in the schema shown FIG. 40A. Animal weight was monitored (FIG. 40). […] FIG. 40D compares calculated individual and mean tumor volumes for vehicle and CP-dn-CEBPD treated animals on day 11.

A375 cells = assay: A375 subcutaneous tumors, 20 mg/kg survival study; format: in vivo, NCR nude mice; settings: 20 mg/kg intraperitoneally
Procedure: A375 cells were subcutaneously implanted in the flanks of NCR nude mice. Once tumors had formed, the animals were treated intraperitoneally with 20 mg/kg of CP-dn-CEBPD or vehicle as indicated in the schema shown in FIG. 39A. Animal weight was monitored (FIG. 39B). Tumor sizes were measured and volumes calculated on each day of injection. […] FIG. 39D compares calculated individual and mean tumor volumes for vehicle and CP-dn-CEBPD treated animals on day 28.

A375 xenograft tumors = assay: TUNEL staining of A375 xenograft tumors; format: in vivo, mice; settings: 20 mg/kg, retreated 2 days later, tumors harvested after additional 2 days
Procedure: Subcutaneous A375 xenograft tumors were established in mice. When the tumors reached approximately 300 mm^3, randomly chosen animals were treated with vehicle or 20 mg/kg of CP-dn-CEBPD. The animals were retreated 2 days later and, after an additional 2 days, the animals were sacrificed, and the tumors harvested for histology and TUNEL staining to detect apoptosis. Results are presented in FIG. 42A (vehicle) and FIG. 42B (CP-dn-CEBPD).

B16-F10 cells = assay: B16-F10 subcutaneous tumors; format: in vivo, C56BL/6 mice; settings: 20 or 50 mg/kg intraperitoneally
Procedure: B16-F10 cells were subcutaneously implanted in the flanks of C56BL/6 mice. After the tumors were established, the mice were treated intraperitoneally with 20 or 50 mg/kg of CP-dn-CEBPD or vehicle as indicated in the schema shown in FIG. 38A. Animal weight was monitored (FIG. 38B). […] FIG. 38D compares calculated individual and mean tumor volumes for each group of animals on day 12.

[1] = endpoint morbid behavior or tumor >1000 mm^3

RQIKIWFQNRRMKWKKLVELSAENEKLHQRVEQLTRDLAGLRQFFK [CP-DN-CEBPD]
side effects (animal weight monitored) (HCT116 cells): no apparent side effects
animal survival (HCT116 cells; [1]): increased animal survival
tumor growth (calculated tumor volumes) (HCT116 cells; to day 11): suppressed tumor growth
side effects (animal weight monitored) (A375 cells): no apparent side effects
animal survival (A375 cells; [1]): increased animal survival
tumor growth (calculated tumor volumes) (A375 cells; to day 28): suppressed tumor growth
apoptosis of tumor cells (TUNEL staining) (A375 xenograft tumors): causes apoptosis of tumor cells in vivo
side effects (animal weight monitored) (B16-F10 cells): no apparent side effects
tumor growth (calculated tumor volumes) (B16-F10 cells; to day 12-13): suppressed tumor growth
